Assay [1] deals with Serine/threonine-protein kinase MRCK alpha (Homo sapiens) (UniProt Q5VT25). Nature of the assay: Selectivity interaction (Kinase panel (Z-LYTE Assay)) EUB0001632a CDC42BPA. Particulars: at 10 µM.
The target in assay [2] is cGMP-specific 3',5'-cyclic phosphodiesterase (Homo sapiens) (UniProt O76074). The assay is described as follows: Selectivity interaction (Eurofins safety panel) EUB0001564a PDE5A. The note with it: at 10 µM.
Assay [3] addresses Cyclin-dependent kinase 15 (Homo sapiens) (UniProt Q96Q40). Nature of the assay: Selectivity interaction (KinomeScan (DiscoverX)) EUB0001619a CDK15. The note with it: at 1 µM.
The target of assay [4] is Sodium channel protein type 2 subunit alpha (Homo sapiens) (UniProt Q99250). The assay is described as follows: Selectivity interaction (Eurofins CEREP Diversity Profile (receptors and ion channels)) EUB0000279b SCN2A. The note with it: at 10 µM.
The target of assay [5] is Serine/threonine-protein kinase SIK2 (Homo sapiens) (UniProt Q9H0K1). The note with it: at 10 µM.
Assay [6] has as its target T1, Dual specificity mitogen-activated protein kinase kinase 4 (Homo sapiens) (UniProt P45985).
T1 sequence (whole entry): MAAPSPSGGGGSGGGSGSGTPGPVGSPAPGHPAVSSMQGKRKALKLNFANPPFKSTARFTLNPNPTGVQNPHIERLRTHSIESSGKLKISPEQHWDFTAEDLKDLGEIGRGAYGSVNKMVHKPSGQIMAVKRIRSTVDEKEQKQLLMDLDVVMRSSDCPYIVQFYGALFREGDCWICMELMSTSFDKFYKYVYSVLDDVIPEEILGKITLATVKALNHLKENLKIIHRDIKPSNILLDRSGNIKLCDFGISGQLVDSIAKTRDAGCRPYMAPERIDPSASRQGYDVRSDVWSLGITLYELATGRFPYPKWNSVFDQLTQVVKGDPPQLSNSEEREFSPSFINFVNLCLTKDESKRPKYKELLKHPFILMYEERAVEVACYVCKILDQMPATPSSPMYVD
Nature of the assay: Selectivity interaction (ActivX KiNativ screen (kinase selectivity in THP-1 cell lysates)) EUB0000639a MAP2K4. Format: subcellular. Particulars: lysate, at 0.2 µM.

The target in assay [7] is T2, Serine/threonine-protein kinase Sgk2 (Homo sapiens) (UniProt Q9HBY8).
T2 sequence (whole entry): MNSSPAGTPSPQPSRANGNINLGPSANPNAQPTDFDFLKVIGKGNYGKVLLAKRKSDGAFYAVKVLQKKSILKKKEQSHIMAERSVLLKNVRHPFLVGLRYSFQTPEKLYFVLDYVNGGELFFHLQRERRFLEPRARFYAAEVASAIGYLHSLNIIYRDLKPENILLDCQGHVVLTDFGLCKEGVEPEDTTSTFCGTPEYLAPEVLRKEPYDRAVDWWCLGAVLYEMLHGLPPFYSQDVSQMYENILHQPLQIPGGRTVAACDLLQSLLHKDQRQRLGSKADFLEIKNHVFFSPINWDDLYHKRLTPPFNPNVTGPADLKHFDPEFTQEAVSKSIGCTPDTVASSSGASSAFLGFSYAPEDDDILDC
The assay is described as follows: Selectivity interaction (ActivX KiNativ screen (kinase selectivity in THP-1 cell lysates)) EUB0000639a SGK2. Format: subcellular. The note with it: lysate.

The next assay deals with Insulin receptor (Homo sapiens, UniProt P06213). The assay is described as follows: Selectivity interaction (ProQinase) EUB0000171b INSR. Particulars: at 5 µM.
Sequence of Insulin receptor (P06213 28-758 limits assumed): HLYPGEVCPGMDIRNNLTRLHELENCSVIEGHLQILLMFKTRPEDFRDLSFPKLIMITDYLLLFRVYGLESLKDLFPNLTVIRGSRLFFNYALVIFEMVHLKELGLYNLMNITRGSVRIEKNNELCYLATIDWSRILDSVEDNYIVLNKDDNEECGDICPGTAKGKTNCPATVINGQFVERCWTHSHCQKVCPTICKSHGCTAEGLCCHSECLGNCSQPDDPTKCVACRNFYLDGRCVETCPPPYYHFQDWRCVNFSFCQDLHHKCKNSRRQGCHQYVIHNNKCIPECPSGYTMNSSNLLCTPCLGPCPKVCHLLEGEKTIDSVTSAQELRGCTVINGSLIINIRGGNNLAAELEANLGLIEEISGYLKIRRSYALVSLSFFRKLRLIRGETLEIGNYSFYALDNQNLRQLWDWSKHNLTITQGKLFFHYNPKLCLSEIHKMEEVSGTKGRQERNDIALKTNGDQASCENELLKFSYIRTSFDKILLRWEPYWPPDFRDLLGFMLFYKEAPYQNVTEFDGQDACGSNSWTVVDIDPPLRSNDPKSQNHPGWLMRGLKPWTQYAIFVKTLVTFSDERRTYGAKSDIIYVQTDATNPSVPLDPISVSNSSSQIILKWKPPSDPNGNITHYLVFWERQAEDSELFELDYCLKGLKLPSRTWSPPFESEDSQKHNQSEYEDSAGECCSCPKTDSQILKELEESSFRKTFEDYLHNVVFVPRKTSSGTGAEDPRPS
Sequence of Insulin receptor (P06213 763-1382 limits assumed): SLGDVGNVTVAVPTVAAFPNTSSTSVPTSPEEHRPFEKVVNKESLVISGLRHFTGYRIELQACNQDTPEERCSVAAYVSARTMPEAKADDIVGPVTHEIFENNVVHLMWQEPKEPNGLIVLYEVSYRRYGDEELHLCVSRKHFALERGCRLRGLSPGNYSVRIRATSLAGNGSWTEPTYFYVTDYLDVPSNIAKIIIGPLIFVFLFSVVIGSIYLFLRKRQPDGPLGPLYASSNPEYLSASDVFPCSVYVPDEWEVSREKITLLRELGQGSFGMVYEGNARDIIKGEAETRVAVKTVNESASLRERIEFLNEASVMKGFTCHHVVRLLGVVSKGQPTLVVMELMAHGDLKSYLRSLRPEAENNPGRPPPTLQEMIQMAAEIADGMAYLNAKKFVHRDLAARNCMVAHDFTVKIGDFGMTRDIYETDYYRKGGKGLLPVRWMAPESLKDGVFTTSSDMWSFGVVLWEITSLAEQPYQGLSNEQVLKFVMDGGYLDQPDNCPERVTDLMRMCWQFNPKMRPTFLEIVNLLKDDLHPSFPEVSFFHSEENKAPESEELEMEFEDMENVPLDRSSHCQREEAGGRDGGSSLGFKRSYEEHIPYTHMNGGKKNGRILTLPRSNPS
For assay [8], the target named is T3, Casein kinase I isoform alpha-like (Homo sapiens) (UniProt Q8N752).
T3 sequence (whole entry): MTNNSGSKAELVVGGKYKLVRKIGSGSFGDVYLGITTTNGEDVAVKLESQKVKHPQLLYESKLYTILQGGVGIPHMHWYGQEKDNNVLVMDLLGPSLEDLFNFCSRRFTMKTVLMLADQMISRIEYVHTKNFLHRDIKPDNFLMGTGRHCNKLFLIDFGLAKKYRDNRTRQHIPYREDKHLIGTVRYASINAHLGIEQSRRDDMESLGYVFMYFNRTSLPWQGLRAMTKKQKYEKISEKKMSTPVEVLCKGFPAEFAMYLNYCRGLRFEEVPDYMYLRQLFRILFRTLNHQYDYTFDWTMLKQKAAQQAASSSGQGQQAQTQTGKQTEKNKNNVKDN
The assay is described as follows: Selectivity interaction (KinomeScan (DiscoverX)) EUB0000655a CSNK1A1L. The note with it: at 10 µM.

Assay [9] relates to Epidermal growth factor receptor (Homo sapiens), P00533 [UNDEFINED MUTATION]. The assay is described as follows: Selectivity interaction (KinomeScan (DiscoverX)) EUB0000655a EGFR. Particulars: at 10 µM.
For assay [10], the target named is Tyrosine-protein kinase BAZ1B (Homo sapiens) (UniProt Q9UIG0). Nature of the assay: Selectivity interaction (Human bromodomain panel (DSF assay)) EUB0000233b BAZ1B. For orientation: DSF heats the sample and reads unfolding from a dye or from intrinsic fluorescence.
Sequence of Tyrosine-protein kinase BAZ1B (Homo sapiens) (Q9UIG0 whole entry): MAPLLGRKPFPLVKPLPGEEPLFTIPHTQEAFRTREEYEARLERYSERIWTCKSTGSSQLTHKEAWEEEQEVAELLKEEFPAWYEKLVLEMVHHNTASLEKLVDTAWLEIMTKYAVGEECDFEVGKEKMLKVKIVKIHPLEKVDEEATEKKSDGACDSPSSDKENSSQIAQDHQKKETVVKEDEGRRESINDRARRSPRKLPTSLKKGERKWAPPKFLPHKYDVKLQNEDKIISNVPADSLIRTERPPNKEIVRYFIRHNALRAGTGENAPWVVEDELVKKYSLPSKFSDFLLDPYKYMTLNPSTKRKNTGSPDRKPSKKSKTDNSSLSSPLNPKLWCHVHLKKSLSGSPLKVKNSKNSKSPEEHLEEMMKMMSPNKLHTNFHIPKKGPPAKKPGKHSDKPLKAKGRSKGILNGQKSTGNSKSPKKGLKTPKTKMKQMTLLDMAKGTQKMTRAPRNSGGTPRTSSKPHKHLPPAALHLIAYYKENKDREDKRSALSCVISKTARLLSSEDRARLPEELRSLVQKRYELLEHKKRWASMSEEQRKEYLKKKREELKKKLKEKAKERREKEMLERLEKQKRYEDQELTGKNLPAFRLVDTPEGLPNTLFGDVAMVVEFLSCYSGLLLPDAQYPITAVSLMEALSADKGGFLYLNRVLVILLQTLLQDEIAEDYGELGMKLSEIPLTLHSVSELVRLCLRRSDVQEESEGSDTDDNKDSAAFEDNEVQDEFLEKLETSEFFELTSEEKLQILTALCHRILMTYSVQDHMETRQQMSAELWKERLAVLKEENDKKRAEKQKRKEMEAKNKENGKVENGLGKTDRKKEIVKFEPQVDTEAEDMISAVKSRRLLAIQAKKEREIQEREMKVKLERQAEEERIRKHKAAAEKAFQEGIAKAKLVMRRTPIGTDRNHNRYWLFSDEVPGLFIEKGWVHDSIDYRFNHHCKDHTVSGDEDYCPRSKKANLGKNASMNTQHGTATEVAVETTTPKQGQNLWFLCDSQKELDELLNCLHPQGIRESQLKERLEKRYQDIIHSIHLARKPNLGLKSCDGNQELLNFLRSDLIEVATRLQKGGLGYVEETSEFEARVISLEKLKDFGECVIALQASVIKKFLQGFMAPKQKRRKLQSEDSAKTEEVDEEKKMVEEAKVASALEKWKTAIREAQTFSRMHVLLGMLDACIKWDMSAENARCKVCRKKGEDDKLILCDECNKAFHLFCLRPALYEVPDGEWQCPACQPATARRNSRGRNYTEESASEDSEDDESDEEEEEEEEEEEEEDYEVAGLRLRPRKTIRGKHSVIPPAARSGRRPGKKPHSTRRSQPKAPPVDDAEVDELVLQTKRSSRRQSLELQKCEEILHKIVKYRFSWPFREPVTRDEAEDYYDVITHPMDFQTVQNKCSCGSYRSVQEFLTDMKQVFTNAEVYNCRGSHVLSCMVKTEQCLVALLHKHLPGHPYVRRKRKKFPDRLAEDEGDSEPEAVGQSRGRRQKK
The target in assay [11] is T4, Serine/threonine-protein kinase Nek2 (Homo sapiens) (UniProt P51955).
T4 sequence (whole entry): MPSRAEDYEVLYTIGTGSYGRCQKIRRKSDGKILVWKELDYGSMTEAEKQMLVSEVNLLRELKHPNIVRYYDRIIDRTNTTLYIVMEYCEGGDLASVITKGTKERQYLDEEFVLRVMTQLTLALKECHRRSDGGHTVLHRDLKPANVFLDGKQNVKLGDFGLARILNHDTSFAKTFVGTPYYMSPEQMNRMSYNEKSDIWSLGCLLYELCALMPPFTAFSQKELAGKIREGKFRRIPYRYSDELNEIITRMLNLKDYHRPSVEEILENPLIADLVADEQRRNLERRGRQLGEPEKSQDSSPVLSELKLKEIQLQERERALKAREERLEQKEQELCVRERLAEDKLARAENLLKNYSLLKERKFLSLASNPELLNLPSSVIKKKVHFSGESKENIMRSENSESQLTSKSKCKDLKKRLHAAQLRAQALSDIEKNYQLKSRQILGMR
Nature of the assay: Selectivity interaction (Millipore kinase profiler) EUB0000124b NEK2. Particulars: at 10 µM.

Assay [12] has as its target T5, Serine/threonine-protein kinase Chk1 (Homo sapiens) (UniProt O14757).
T5 sequence (whole entry): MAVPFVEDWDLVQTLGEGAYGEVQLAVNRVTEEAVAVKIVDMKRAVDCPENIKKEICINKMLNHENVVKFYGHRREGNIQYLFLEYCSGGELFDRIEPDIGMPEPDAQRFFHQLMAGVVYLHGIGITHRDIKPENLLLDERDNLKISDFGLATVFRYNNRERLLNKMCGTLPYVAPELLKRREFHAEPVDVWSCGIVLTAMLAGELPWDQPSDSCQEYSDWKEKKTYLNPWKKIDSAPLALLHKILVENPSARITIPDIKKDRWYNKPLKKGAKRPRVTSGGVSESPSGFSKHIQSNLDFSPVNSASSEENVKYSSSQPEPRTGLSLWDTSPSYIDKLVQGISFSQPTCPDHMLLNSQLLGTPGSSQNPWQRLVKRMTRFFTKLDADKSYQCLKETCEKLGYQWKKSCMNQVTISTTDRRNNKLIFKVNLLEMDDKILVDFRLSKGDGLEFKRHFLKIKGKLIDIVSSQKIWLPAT
The assay is described as follows: Selectivity interaction (KinomeScan (DiscoverX)) EUB0000229b CHEK1. The note with it: at 10 µM.

The structures appear in SMILES notation.

Sequence of Serine/threonine-protein kinase MRCK alpha (Homo sapiens) (Q5VT25 whole entry): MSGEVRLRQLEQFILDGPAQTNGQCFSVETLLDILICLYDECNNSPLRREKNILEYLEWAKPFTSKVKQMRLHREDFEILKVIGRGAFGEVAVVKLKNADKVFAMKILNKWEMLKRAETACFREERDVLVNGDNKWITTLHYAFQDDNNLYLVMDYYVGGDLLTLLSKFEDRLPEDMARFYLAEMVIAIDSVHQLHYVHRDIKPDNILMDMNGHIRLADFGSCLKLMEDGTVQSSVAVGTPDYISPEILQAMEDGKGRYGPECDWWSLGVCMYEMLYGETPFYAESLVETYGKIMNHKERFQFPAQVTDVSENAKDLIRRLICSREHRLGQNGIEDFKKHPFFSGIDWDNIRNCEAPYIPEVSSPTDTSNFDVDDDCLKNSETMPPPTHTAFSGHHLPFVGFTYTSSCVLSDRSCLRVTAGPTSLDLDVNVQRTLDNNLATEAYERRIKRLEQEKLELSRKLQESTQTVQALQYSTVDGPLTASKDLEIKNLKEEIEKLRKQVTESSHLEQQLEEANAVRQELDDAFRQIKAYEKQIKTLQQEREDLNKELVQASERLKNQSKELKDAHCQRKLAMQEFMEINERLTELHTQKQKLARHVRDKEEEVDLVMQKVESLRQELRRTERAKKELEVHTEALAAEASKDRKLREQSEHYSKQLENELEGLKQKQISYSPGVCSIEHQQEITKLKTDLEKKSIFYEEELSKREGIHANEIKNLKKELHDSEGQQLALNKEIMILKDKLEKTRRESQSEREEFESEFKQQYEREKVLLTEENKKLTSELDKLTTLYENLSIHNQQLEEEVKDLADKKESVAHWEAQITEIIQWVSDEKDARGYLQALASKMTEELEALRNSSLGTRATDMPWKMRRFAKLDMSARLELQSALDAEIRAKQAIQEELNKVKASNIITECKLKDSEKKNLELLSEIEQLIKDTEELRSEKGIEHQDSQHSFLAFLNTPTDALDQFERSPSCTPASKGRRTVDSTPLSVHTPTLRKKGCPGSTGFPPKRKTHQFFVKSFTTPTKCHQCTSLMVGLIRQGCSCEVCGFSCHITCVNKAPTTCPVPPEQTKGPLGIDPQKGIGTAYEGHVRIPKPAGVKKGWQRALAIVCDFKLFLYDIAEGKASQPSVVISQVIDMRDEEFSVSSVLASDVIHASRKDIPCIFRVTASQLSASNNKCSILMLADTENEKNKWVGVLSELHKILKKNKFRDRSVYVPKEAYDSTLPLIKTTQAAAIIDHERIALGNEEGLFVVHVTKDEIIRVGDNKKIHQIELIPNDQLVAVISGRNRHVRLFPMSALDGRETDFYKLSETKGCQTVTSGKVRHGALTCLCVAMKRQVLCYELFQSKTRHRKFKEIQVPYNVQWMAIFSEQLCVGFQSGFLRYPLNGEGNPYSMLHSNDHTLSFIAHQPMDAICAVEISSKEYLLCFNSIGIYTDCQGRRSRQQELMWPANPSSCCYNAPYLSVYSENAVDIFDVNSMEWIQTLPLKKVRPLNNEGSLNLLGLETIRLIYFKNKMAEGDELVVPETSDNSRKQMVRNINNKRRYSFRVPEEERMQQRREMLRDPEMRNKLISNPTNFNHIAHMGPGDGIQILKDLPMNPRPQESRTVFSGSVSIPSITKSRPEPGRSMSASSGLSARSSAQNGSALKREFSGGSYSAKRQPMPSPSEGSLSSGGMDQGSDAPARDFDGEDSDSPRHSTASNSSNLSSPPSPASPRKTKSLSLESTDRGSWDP
Sequence of Cyclin-dependent kinase 15 (Homo sapiens) (Q96Q40 whole entry): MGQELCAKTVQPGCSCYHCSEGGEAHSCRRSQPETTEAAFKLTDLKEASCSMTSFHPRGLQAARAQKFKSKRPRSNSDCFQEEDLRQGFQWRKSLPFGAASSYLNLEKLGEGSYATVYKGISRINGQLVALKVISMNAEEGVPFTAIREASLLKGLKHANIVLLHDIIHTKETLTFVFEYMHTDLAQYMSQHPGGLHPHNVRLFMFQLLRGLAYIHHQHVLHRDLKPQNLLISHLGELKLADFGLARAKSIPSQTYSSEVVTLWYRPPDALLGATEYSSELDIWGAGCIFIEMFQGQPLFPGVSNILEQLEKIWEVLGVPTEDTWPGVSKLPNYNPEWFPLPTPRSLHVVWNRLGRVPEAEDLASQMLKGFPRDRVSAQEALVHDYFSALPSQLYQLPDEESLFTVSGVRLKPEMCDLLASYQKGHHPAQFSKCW

Consider `Cn1cc(-n2cnc3c(NCc4nc5cc(Cl)c(Cl)cc5[nH]4)nc(N4CCOCC4)nc32)cn1`, for which, in assay [1], the % of control is -5.27%.
As to `CC[C@@H](Nc1c(C#N)c(-c2ccc(-c3cccc(C)c3F)cc2)nc2cnccc12)C(=O)O` [BAY-091], the % of inhibition in assay [2] was 62%.
On to `N#Cc1cccc(-c2c[nH]c3ncnc(N4CCOCC4)c23)c1`, for which the % of control in assay [3] amounted to 100%.
For `CC(=O)c1cc(-c2ccccc2OCC2CC2)c2ncccn12`, the % of control in assay [4] amounted to 100%.
For `CCN(CC)CCCCNc1ncc2cc(-c3cc(OC)cc(OC)c3)c(NC(=O)NC(C)(C)C)nc2n1`, the % of control in assay [5] was determined as 100%.
As for `CC[C@@H]1[C@H](F)C(=O)N[C@@H]1COc1nccc2cc(C(N)=O)c(OC)cc12` [ZIMLOVISERTIB], the % of inhibition in assay [6] is 15.8%; in assay [7] (at 0.01 µM) it was -1%; in assay [7] (at 0.04 µM) it was 3.1%; in assay [7] (at 0.2 µM) it was -5.7%; in [7] (at 1 µM), -1%; in assay [7] (at 5 µM), -1.4%.
For the compound `C=CC(=O)Nc1cccc(C(=O)Nc2ccc(Nc3cc(-c4[nH]c(SC)nc4C)ccn3)cc2)c1`, the % of control on Insulin receptor came to 72%.
As to `CN(C)CCOc1ccc(-c2nc(-c3ccncc3)c(-c3ccc4c(c3)CC/C4=N\O)[nH]2)cc1`, the % of control in assay [8] is 88%; in assay [9] it was 92%.
`CN(C)CCCOc1ccc(-c2cc(NCCCn3cccn3)nc(S(C)(=O)=O)n2)cc1`: in assay [10], the dTM was under 2 K.
Turning to `CC(=O)Nc1cccc(-n2c(=O)n(C3CC3)c(=O)c3c(Nc4ccc(I)cc4F)n(C)c(=O)c(C)c32)c1`, in [11], the % of control stood at 119%.
In [12], `COc1cc(N(C)c2ccnc3ccc(C(F)(F)F)cc23)cc(OC)c1OC` returned a % binding of 92%.

For the origin of these results see ChEMBL document CHEMBL5465560, “Selectivity Literature for EUbOPEN Chemogenomic Library” (2024).
